Experimental data as given in paper PMC11277489, “Novel Piperazine Derivatives of Vindoline as Anticancer Agents” (International Journal of Molecular Sciences, 2024).

Tests used:
NCI-H226 [1] = assay: NCI60 one-dose screen (10 μM), Non-small Cell Lung Cancer; type: cell-based; settings: Homo sapiens; 10 μM; NCI-H226, Non-small Cell Lung Cancer; read-out: Growth percent rate
MALME-3M = assay: NCI60 five-dose screen, Melanoma; type: cell-based; settings: Homo sapiens; MALME-3M, Melanoma; five-dose screen; read-out: GI50
PC-3 = assay: NCI60 one-dose screen (10 μM), Prostate Cancer; type: cell-based; settings: Homo sapiens; 10 μM; PC-3, Prostate Cancer; read-out: Growth percent rate
HOP-92 [2] = assay: NCI60 five-dose screen, Non-small Cell Lung Cancer; type: cell-based; settings: Homo sapiens; HOP-92, Non-small Cell Lung Cancer; five-dose screen; read-out: GI50
HT29 = assay: NCI60 five-dose screen, Colon Cancer; type: cell-based; settings: Homo sapiens, HT-29; HT29, Colon Cancer; five-dose screen; read-out: GI50
MDA-MB-231/ATCC = assay: NCI60 one-dose screen (10 μM), Breast Cancer; type: cell-based, human; settings: Homo sapiens; 10 μM; MDA-MB-231/ATCC, Breast Cancer; read-out: Growth percent rate
CAKI-1 = assay: NCI60 five-dose screen, Renal Cancer; type: cell-based; settings: Homo sapiens; CAKI-1, Renal Cancer; five-dose screen; read-out: GI50
U251 = assay: NCI60 five-dose screen, CNS Cancer; type: cell-based; settings: Homo sapiens, U-251; U251, CNS Cancer; five-dose screen; read-out: GI50
T-47D [3] = assay: NCI60 five-dose screen, Breast Cancer; type: cell-based; settings: Homo sapiens, T47D; T-47D, Breast Cancer; five-dose screen; read-out: GI50
HCT-15 = assay: NCI60 five-dose screen, Colon Cancer; type: cell-based; settings: Homo sapiens; HCT-15, Colon Cancer; five-dose screen; read-out: GI50
NCI-H226 [4] = assay: NCI60 five-dose screen, Non-small Cell Lung Cancer; type: cell-based; settings: Homo sapiens; NCI-H226, Non-small Cell Lung Cancer; five-dose screen; read-out: GI50
SK-MEL-5 = assay: NCI60 five-dose screen, Melanoma; type: cell-based; settings: Homo sapiens; SK-MEL-5, Melanoma; five-dose screen; read-out: GI50
SR = assay: NCI60 one-dose screen (10 μM), Leukemia; type: cell-based; settings: Homo sapiens, 10 μM, Leukemia, read-out: Growth percent rate
SK-OV-3 = assay: NCI60 one-dose screen (10 μM), Ovarian Cancer; type: cell-based; settings: Homo sapiens; 10 μM; SK-OV-3, Ovarian Cancer; read-out: Growth percent rate
OVCAR-5 = assay: NCI60 one-dose screen (10 μM), Ovarian Cancer; type: cell-based; settings: Homo sapiens; 10 μM; OVCAR-5, Ovarian Cancer; read-out: Growth percent rate
HL-60(TB) = assay: NCI60 five-dose screen, Leukemia; type: cell-based; settings: Homo sapiens; HL-60(TB), Leukemia; five-dose screen; read-out: GI50
IGROV1 = assay: NCI60 five-dose screen, Ovarian Cancer; type: cell-based; settings: Homo sapiens, IGROV-1; IGROV1, Ovarian Cancer; five-dose screen; read-out: GI50
NCI-H460 = assay: NCI60 five-dose screen, Non-small Cell Lung Cancer; type: cell-based; settings: Homo sapiens; NCI-H460, Non-small Cell Lung Cancer; five-dose screen; read-out: GI50
NCI-H522 = assay: NCI60 five-dose screen, Non-small Cell Lung Cancer; type: cell-based; settings: Homo sapiens; NCI-H522, Non-small Cell Lung Cancer; five-dose screen; read-out: GI50
TK-10 = assay: NCI60 five-dose screen, Renal Cancer; type: cell-based; settings: Homo sapiens; TK-10, Renal Cancer; five-dose screen; read-out: GI50
MDA-MB-468 = assay: NCI60 one-dose screen (10 μM), Breast Cancer; type: cell-based; settings: Homo sapiens; 10 μM; MDA-MB-468, Breast Cancer; read-out: Growth percent rate
SF-268 [5] = assay: NCI60 one-dose screen (10 μM), CNS Cancer; type: cell-based; settings: Homo sapiens; 10 μM; SF-268, CNS Cancer; read-out: Growth percent rate
T-47D [6] = assay: NCI60 one-dose screen (10 μM), Breast Cancer; type: cell-based; settings: Homo sapiens, T47D; 10 μM; T-47D, Breast Cancer; read-out: Growth percent rate
UACC-257 = assay: NCI60 five-dose screen, Melanoma; type: cell-based; settings: Homo sapiens; UACC-257, Melanoma; five-dose screen; read-out: GI50
BT-549 = assay: NCI60 one-dose screen (10 μM), Breast Cancer; type: cell-based; settings: Homo sapiens; 10 μM; BT-549, Breast Cancer; read-out: Growth percent rate
UACC-62 = assay: NCI60 one-dose screen (10 μM), Melanoma; type: cell-based; settings: Homo sapiens; 10 μM; UACC-62, Melanoma; read-out: Growth percent rate
LOX IMVI [7] = assay: NCI60 five-dose screen, Melanoma; type: cell-based; settings: Homo sapiens, Melanoma, five-dose screen, read-out: GI50
NCI-H23 = assay: NCI60 five-dose screen, Non-small Cell Lung Cancer; type: cell-based; settings: Homo sapiens; NCI-H23, Non-small Cell Lung Cancer; five-dose screen; read-out: GI50
UO-31 = assay: NCI60 one-dose screen (10 μM), Renal Cancer; type: cell-based; settings: Homo sapiens; 10 μM; UO-31, Renal Cancer; read-out: Growth percent rate
OVCAR-4 [8] = assay: NCI60 five-dose screen, Ovarian Cancer; type: cell-based; settings: Homo sapiens; OVCAR-4, Ovarian Cancer; five-dose screen; read-out: GI50
SF-268 [9] = assay: NCI60 five-dose screen, CNS Cancer; type: cell-based; settings: Homo sapiens; SF-268, CNS Cancer; five-dose screen; read-out: GI50
NCI/ADR-RES = assay: NCI60 five-dose screen, Ovarian Cancer; type: cell-based; settings: Homo sapiens, Ovarian Cancer, five-dose screen, read-out: GI50
RXF 393 = assay: NCI60 one-dose screen (10 μM), Renal Cancer; type: cell-based, human; settings: Homo sapiens; 10 μM; RXF 393, Renal Cancer; read-out: Growth percent rate
OVCAR-8 = assay: NCI60 five-dose screen, Ovarian Cancer; type: cell-based; settings: Homo sapiens; OVCAR-8, Ovarian Cancer; five-dose screen; read-out: GI50
[10] = tested on: 60 human tumor cell lines (NCI60); assay: NCI60 one-dose screen (10 μM), whole panel; type: cell-based; settings: for activity at 10 µM: mean over 60 human cancer cell lines, read-out: Growth percent rate, Mean
SNB-75 = assay: NCI60 five-dose screen, CNS Cancer; type: cell-based; settings: Homo sapiens; SNB-75, CNS Cancer; five-dose screen; read-out: GI50
K-562 = assay: NCI60 five-dose screen, Leukemia; type: cell-based; settings: Homo sapiens, K562; K-562, Leukemia; five-dose screen; read-out: GI50
HOP-92 [11] = assay: NCI60 one-dose screen (10 μM), Non-small Cell Lung Cancer; type: cell-based; settings: Homo sapiens; 10 μM; HOP-92, Non-small Cell Lung Cancer; read-out: Growth percent rate
LOX IMVI [12] = assay: NCI60 one-dose screen (10 μM), Melanoma; type: cell-based, human; settings: Homo sapiens; 10 μM; LOX IMVI, Melanoma; read-out: Growth percent rate
HCC-2998 = assay: NCI60 five-dose screen, Colon Cancer; type: cell-based; settings: Homo sapiens; HCC-2998, Colon Cancer; five-dose screen; read-out: GI50
EKVX = assay: NCI60 five-dose screen, Non-small Cell Lung Cancer; type: cell-based; settings: Homo sapiens, Non-small Cell Lung Cancer, five-dose screen, read-out: GI50
OVCAR-4 [13] = assay: NCI60 one-dose screen (10 μM), Ovarian Cancer; type: cell-based; settings: Homo sapiens; 10 μM; OVCAR-4, Ovarian Cancer; read-out: Growth percent rate
MDA-MB-435 = assay: NCI60 five-dose screen, Melanoma; type: cell-based; settings: Homo sapiens; MDA-MB-435, Melanoma; five-dose screen; read-out: GI50
DU-145 = assay: NCI60 one-dose screen (10 μM), Prostate Cancer; type: cell-based; settings: Homo sapiens; 10 μM; DU-145, Prostate Cancer; read-out: Growth percent rate

For `CC[C@]12C=CCN3CC[C@@]4(c5ccc(OC)cc5N(C)[C@H]4[C@@](O)(C(=O)OC)[C@@H]1OC(=O)CCCN1CCN(Cc4ccc(C(F)(F)F)cc4)CC1)[C@@H]32` [Compound 23], the activity at 10 µM (NCI-H226 [1]) was -32.3%, the GI50 (MALME-3M) was 1.58 µM and the activity at 10 µM (PC-3) was -72%. It also gave a GI50 (HOP-92 [2]) of 1.51 µM, a GI50 (HT29) of 1.66 µM and an activity at 10 µM (MDA-MB-231/ATCC) of -94.4%. For the same molecule, the GI50 (CAKI-1) was 1.48 µM, the GI50 (U251) was 1.66 µM and the GI50 (T-47D [3]) was 1.74 µM. It also gave a GI50 (HCT-15) of 1.74 µM, a GI50 (NCI-H226 [4]) of 2.04 µM and a GI50 (SK-MEL-5) of 1.35 µM. It also gave an activity at 10 µM (SR) of -55.2%, an activity at 10 µM (SK-OV-3) of -44% and an activity at 10 µM (OVCAR-5) of -86%. The GI50 (HL-60(TB)) was 1.74 µM, the GI50 (IGROV1) was 1.78 µM and the GI50 (NCI-H460) was 1.55 µM. The GI50 (NCI-H522) was 1.7 µM, the GI50 (TK-10) was 1.66 µM and the activity at 10 µM (MDA-MB-468) was -58.2%. For the same molecule, the activity at 10 µM (SF-268 [5]) was -55.1%, the activity at 10 µM (T-47D [6]) was -20% and the GI50 (UACC-257) was 1.74 µM. The activity at 10 µM (BT-549) was -92.4%, the activity at 10 µM (UACC-62) was -91.5% and the GI50 (LOX IMVI [7]) was 1.78 µM. The GI50 (NCI-H23) was 1.91 µM, the activity at 10 µM (UO-31) was -69.5% and the GI50 (OVCAR-4 [8]) was 2.04 µM. The GI50 (SF-268 [9]) was 1.35 µM, the GI50 (NCI/ADR-RES) was 1.58 µM and the activity at 10 µM (RXF 393) was -85.3%. For the same molecule, the GI50 (OVCAR-8) was 1.82 µM, the growth rate ([10]; 10 μM one-dose, on almost all tested cancer types and cell lines, negative = lethality) was < −60% and the activity at 10 µM [10] was -71.8%. For the same molecule, the GI50 (SNB-75) was 1.45 µM, the GI50 (K-562) was 1.7 µM and the activity at 10 µM (HOP-92 [11]) was -70.7%. For the same molecule, the activity at 10 µM (LOX IMVI [12]) was -54.4%, the GI50 (HCC-2998) was 1.51 µM and the GI50 (EKVX) was 1.7 µM. The activity at 10 µM (OVCAR-4 [13]) was -32.1%, the GI50 (MDA-MB-435) was 1.48 µM and the activity at 10 µM (DU-145) was -64.9%.
With `CC[C@]12C=CCN3CC[C@@]4(c5ccc(OC)cc5N(C)[C@H]4[C@@](O)(C(=O)OC)[C@@H]1OC(=O)CCC(=O)N1CCN(Cc4ccc(C(F)(F)F)cc4)CC1)[C@@H]32` [Compound 29] the activity at 10 µM (NCI-H226 [1]) was 16.7%, the GI50 (MALME-3M) was 11.5 µM and the activity at 10 µM (PC-3) was 2.13%. The GI50 (HOP-92 [2]) was 4.27 µM, the GI50 (HT29) was 6.76 µM and the activity at 10 µM (MDA-MB-231/ATCC) was 3.02%. For the same molecule, the GI50 (CAKI-1) was 8.71 µM, the GI50 (U251) was 11.2 µM and the GI50 (T-47D [3]) was 5.25 µM. The GI50 (HCT-15) was 10.2 µM, the GI50 (NCI-H226 [4]) was 9.77 µM and the GI50 (SK-MEL-5) was 3.89 µM. It also gave an activity at 10 µM (SR) of -48.3%, an activity at 10 µM (SK-OV-3) of 12.4% and an activity at 10 µM (OVCAR-5) of 15.2%. It also gave a GI50 (HL-60(TB)) of 12.9 µM, a GI50 (IGROV1) of 10.7 µM and a GI50 (NCI-H460) of 10.5 µM. The GI50 (NCI-H522) was 12.6 µM, the GI50 (TK-10) was 12.3 µM and the activity at 10 µM (MDA-MB-468) was -20.5%. It also gave an activity at 10 µM (SF-268 [5]) of 14.6%, an activity at 10 µM (T-47D [6]) of 24% and a GI50 (UACC-257) of 11.5 µM. The activity at 10 µM (BT-549) was -54.5%, the activity at 10 µM (UACC-62) was -19.7% and the GI50 (LOX IMVI [7]) was 13.8 µM. It also gave a GI50 (NCI-H23) of 12 µM, an activity at 10 µM (UO-31) of 5.16% and a GI50 (OVCAR-4 [8]) of 5.62 µM. It also gave a GI50 (SF-268 [9]) of 5.75 µM, a GI50 (NCI/ADR-RES) of 12.3 µM and an activity at 10 µM (RXF 393) of 10.2%. The GI50 (OVCAR-8) was 12 µM, the activity at 10 µM [10] was -1.41% and the GI50 (SNB-75) was 15.5 µM. For the same molecule, the GI50 (K-562) was 3.8 µM, the activity at 10 µM (HOP-92 [11]) was -22.6% and the activity at 10 µM (LOX IMVI [12]) was -7.07%. It also gave a GI50 (HCC-2998) of 12.9 µM, a GI50 (EKVX) of 7.59 µM and an activity at 10 µM (OVCAR-4 [13]) of 10.5%. It also gave a GI50 (MDA-MB-435) of 10.5 µM and an activity at 10 µM (DU-145) of 20.3%.
